Data reported in patent publication US11927590B2, “Methods and systems for screening therapeutic compositions for treating age-related macular degeneration” (ARIZONA BOARD OF REGENTS ON BEHALF OF THE UNIVERSITY OF …, priority 2020, dated 2024).

Tested on: retinal pigment epithelial (RPE) cells
Test: RPE exosome release
Assay type: cell-based
Settings: RPE cells incubated in media (DMEM) plus L-DOPA versus media alone (FIG. 3A)
From the text: Exosomes released from retinal pigment epithelial (RPE) cells can be isolated. […] Cells and cell debris are removed and exosomes are then purified. Note the present invention is not limited to this particular method of exosome isolation. In certain embodiments of the present invention, exosomes are not isolated for the measurement of levels of exosomes released from RPE cells. […] FIG. 3B illustrates GPR143 exosome release and its inhibition by L-DOPA. FIG. 4A and FIG. 4B show RPE exosome release studies in response to 30 minute treatments with 1 μM dopamine (FIG. 4A), 1 nM Dopamine 2 receptor (D2R) agonist (bromocriptine, FIG. 4B), and 1 nM Dopamine 2 receptor ([…]) antagonist (raclopride, FIG. 4B).

N[C@@H](Cc1ccc(O)c(O)c1)C(=O)O [L-DOPA]
exosome release from RPE cells: significant reduction in exosome release
